Among the data in PubChem BioAssay AID2067 (The Scripps Research Institute Molecular Screening Center, 2009) are IC50 and Ki values, retold here.

For this experiment, the target named is Collagenase 3 (Homo sapiens) (UniProt P45452). In words: MMP13 inhibition and MMP selectivity, late-stage follow-up, selectivity assay for MMP13 inhibitor project, biochemical, probe development, late stage results (AID 2067). As to conditions: recombinant MMP panel, fTHP FRET substrate cleavage, MMP-13; for Ki: Ki assay, MMP-13 Ki, Lineweaver-Burk.

On to `COC(=O)c1ccc(CSc2nc3c(c(=O)[nH]2)CCC3)cc1`, for which the IC50 is 2820 nM and the Ki came out at 1500 nM.
For `O=c1[nH]c(SCc2ccc(Cl)cc2)nc2c1CCC2` the same measures were 3360 nM and 3800 nM.
For `Cc1ccc(CSc2nc3c(c(=O)[nH]2)CCC3)cc1` the same measures were 2440 nM and 840 nM.
